# Assay results from patent US6518302B1, “Remedies” (Takara Shuzo Co., Ltd., priority 1999, dated 2003).
# Tests used:
# [1] = test system: HL-60 (ATCC CCL-240) cells; assay: Analysis of DNA fragmentation; type: cell-based, Human; details: HL-60 cells, cultured for 24 or 48 hours (time not given)
# Protocol: HL-60 (ATCC CCL-240) cells were cultured at 37° C. in RPMI 1640 medium (Bio Whittaker) containing 10% fetal calf serum (JRH) which had been treated at 56° C. for 30 minutes and suspended in RPMI 1640 medium at a concentration of 2.5×10^5 cells/4.5 ml. […] each of aqueous solutions of the compound (2) at a concentration of 10, 50 or 100 mM, the compound (7) at a concentration of 500, 1000 or 1500 μM, the compound (9) at a concentration of 750, 1500 or 3000 μM, the compound (11) at a concentration of 750, 1500 or 3000 μM, or the compound (14) at a concentration of 750, 1500 or 3000 μM was added to 4.5 ml of the suspension. The mixtures were incubated at 37° C. for 24 hours in the presence of 5% CO2. Measurement of apoptotic cells using FACScan as described in Saibo Kogaku, Bessatsu (Cell Technology, Suppl.) Jikken Protocol Series: Apoptosis Jikken Protocol (Experimental Protocol Series: Experimental Protocols for Apoptosis) (Shujun-sha) pp. 129-130 and analysis of DNA fragmentation as described in Bio Manual UP Series: […] Apoptosis Jikken-ho (Bio Manual UP Series: Current Experimental Methods for Apoptosis) (Yodo-sha) pp. 61-63 were carried out using cells cultured for 24 or 48 hours in the same manner as that described above.
# [2] = test system: prostaglandin E2 production in RAW264.7 cells; assay: Inhibition of prostaglandin E2 production induction by LPS (ELISA); type: cell-based; details: compound (7), (14) or (17) at final concentration of 50, 100 or 100 μM, respectively
# Protocol: RAW264.7 cells were suspended in Dulbecco's modified Eagle's medium (Bio Whittaker, Code. 12-604F) containing 10% fetal calf serum at a concentration of 3×10^5 cells/ml. 500 μl of the suspension was added to each well of a 48-well microtiter plate and the plate was incubated at 37° C. for 6 hours in the presence of 5% CO2. The compound (7), (14) or (17) prepared in Example 1 was added to the well at a final concentration of 50, 100 or 100 μM, respectively. The plate was incubated for additional 5 hours. 10 μl of 50 μg/ml lipopolysaccharide (LPS, Sigma, Code. L-2012) aqueous solution was then added to the well. After the plate was incubated for additional 12 hours, the amount of prostaglandin E2 was measured. As control groups, a group to which LPS was not added and a group to which the compound (7), (14) or (17) was not added were provided.
# After cultivation, the amount of prostaglandin E2 in the culture supernatant was measured using Prostaglandin E2 ELISA Kit (Neogen, Code. 404110). All of the measurements were carried out in triplicate.
# FIG. 21 illustrates the prostaglandin E2 concentration in the medium obtained by incubating under various culture conditions. In FIG. 21, the horizontal axis represents the culture conditions and the vertical axis represents the prostaglandin E2 concentration (ng/ml).
# [3] = test system: IL-10 production in RAW264.7 cells; assay: Inhibition of LPS-induced IL-10 production (ELISA); type: cell-based, Mouse; details: 0.5 ml, 5 μl of 10 mM compound (14), 1 μl of 25 mM compound (7) or 1 μl of 50 mM compound (17), 18 hours after LPS
# Protocol: RAW264.7 cells (ATCC TIB 71) were suspended in Dulbecco's modified Eagle's medium (Bio Whittaker, 12-604F) containing 10% fetal calf serum (Gibco) at a concentration of 3×10^5 cells/ml. 0.5 ml of the suspension was added to each well of a 48-well microtiter plate and the plate was incubated at 37° C. overnight in the presence of 5% CO2. 5 μl of a solution containing the compound (14) at a concentration of 10 mM in water, 1 μl of a solution of the compound (7) at a concentration of 25 mM in dimethyl sulfoxide, or 1 μl of a solution of the compound (17) at a concentration of 50 mM in dimethyl sulfoxide was added to the well. After incubation for additional 5 hours, 5 μl of a solution of lipopolysaccharide (LPS, Sigma, L-2012) at a concentration of 100 μg/ml in water was added thereto. After incubation for 18 hours, a culture supernatant was collected. The content of interleukin 10 (IL-10) in the culture supernatant was measured using enzyme immuno sandwich assay (ELISA; Mouse IL-10 ELISA Kit, Endogen). As a control, a group to which the sample or the LPS aqueous solution was not added was provided. All of the measurements were carried out in duplicate.
# FIG. 27 illustrates the IL-10 concentrations in culture supernatants obtained by culturing under various culture conditions. The horizontal axis represents the culture conditions and the vertical axis represents the IL-10 concentration (pg/ml).
Compound,final concentration at which DNA fragmentation was observed [1] [µM],inhibition of prostaglandin E2 production induction by LPS [2],inhibition of LPS-induced IL-10 production [3]
"O=C[C@H](O)[C@H]1OC[C@@H](O)[C@@H]1OC(=O)c1ccccc1 [Compound (7), 4-O-benzoyl-3,6-anhydro-D-galactose]",≥ 100,inhibited the prostaglandin E2 production induction by LPS,inhibition of LPS-induced IL-10 production was observed
"OCC1OC(OC2C(CO)OC(OC3C(CO)OC(OC4C(O)COC4C(O)C(O)O)C(O)C3O)C(O)C2O)C(O)C(O)C1O [Compound (14), 4-O-β-maltotoriosyl-3,6-anhydro-D-galactose]",≥ 75,inhibited the prostaglandin E2 production induction by LPS,inhibition of LPS-induced IL-10 production was observed
"O=C[C@H](O)[C@H]1OC[C@@H](O)[C@@H]1OCc1ccccc1 [Compound (17), 4-O-benzyl-3,6-anhydro-D-galactose]",–,inhibited the prostaglandin E2 production induction by LPS,inhibition of LPS-induced IL-10 production was observed
